Data reported in patent US20070061917A1, “Methods and compositions for the expression of a polynucleotide of interest” (Pioneer Hi-Bred International, Inc., priority 2005, published 2007).

What was measured:
[1] = system: infected GS3 embryos with the GAT construct; assay: Glyphosate response of embryos infected with the GAT construct; format: cell-based, maize; conditions: about 40 days culture
Method: (§1) A glyphosate kill curve was established by testing non-transformed embryos response on media with different levels of glyphosate. GS3 embryos were isolated from an immature ear and placed onto media containing glyphosate at 0.0, 0.5, 1.0, and 2.0 mM. After about 40 days culture, the response of the embryos were observed and recorded. Similarly, infected GS3 embryos with the GAT construct were placed onto media containing glyphosate at 0.0, 0.5, 1.0, and 2.0 mM. After about 40 days culture, the response of the infected embryos were observed and recorded (FIG. 7).
(§2) Western or PCR analysis has confirmed that these resistant calli were transformed. Currently, GAT has performed consistently as an effective selectable marker with excellent transformation efficiency in both GS3 and introEF09B genotypes (FIG. 9 and Table 1).

[2] = system: non-transformed GS3 embryos; assay: Glyphosate kill curve on non-transformed embryos; format: cell-based, maize; conditions: about 40 days culture
Method: as §1, §2

O=C(O)CNCP(=O)(O)O [glyphosate]
embryo callus response ([1]; 0.5 mM glyphosate in medium): more callus was grown | embryo callus response ([1]; 1.0 mM glyphosate in medium): some embryos initiated resistant callus | embryo callus response ([1]; 2.0 mM glyphosate in medium): some embryos initiated resistant callus | embryo callus response ([2]; 0.5 mM glyphosate in medium): about half of the embryos | embryo callus response ([2]; 1.0 mM glyphosate in medium): very little callus growth | embryo callus response ([2]; 2.0 mM glyphosate in medium): very little callus growth
